Data reported in patent US9557338B2 (SIGNAL PHARMACEUTICALS, LLC, priority 2012, dated 2017).
Where two headings read alike, the source gives them in different places.

Assays:
Type in all cases: cell-based
Phospho-p70S6K (T389) = assay: MSD assay, phospho-p70S6K (T389) in cell lysates
Procedure: Determination of Phospho-p70S6K (T389) in Cell Lysates.
MSD® biomarker detection assays provide a rapid and convenient method for measuring the total and phosphorylated levels of protein targets within a single small-volume sample. In the assay, an antibody for a specific protein target is coated on one electrode (or spot) per well. The samples (cell lysates) are added to the well with a solution containing the detection antibody labeled with an electrochemiluminescent (ECL) compound, MSD SULFOTAG™ label, over the course of one or more incubation periods. The total protein present in the sample binds to the capture antibodies immobilized on the working electrode surface; recruitment of the labeled detection antibody by bound phospho-p70S6K completes the sandwich. MSD Read Buffer that provides the appropriate chemical environment for ECL is added and the plate is read using an MSD SECTOR™ Imager. Inside the SECTOR Imager, a voltage is applied to the plate electrodes which cause the labels bound to the electrode surface to emit light. The instrument measures intensity of the emitted light to afford a quantitative measure of the amount of phosphorylated protein present in the sample.
Cells were plated in 96-well flat bottom plates at the required density determined for each cell line and the cells were allowed to equilibrate at 37° C., 5% CO2 overnight. The following day, the cells were treated with Compound 1 over a range of concentrations for one hour in 5% CO2 at 37° C. After the incubation period, the culture medium was removed carefully with an aspirator. The plate was placed on ice and 50 μL of 1× Tris Lysis Buffer were added to each well. The plate was placed on a shaker at 4° C. for one hour to lyse the cells. At that point, the plate was either frozen at −80° C. for later analysis or immediately assayed for phosphoproteins as described below. To monitor interassay variability, Compound 1 was compared among all plates as a reference standard.
The assay plate was incubated with 150 μL of MSD Blocking Buffer for one hour with shaking at room temperature. The plates were washed 3 times with Tris Wash Buffer. Then 35 μL of cell lysate was added to the wells and incubated for one hour with shaking at room temperature. The solution was removed from the wells and the plate was washed 3 times with wash buffer. Twenty-five microliters of the appropriate antibody solution was then incubated for one hour with shaking at room temperature. The solution was removed from the wells and the plate was washed 3 times with wash buffer. Then 150 μL of 1×MSD Read Buffer T was added to each well. The plate was read on the SECTOR Imager plate reader.

GSK-3β = assay: MSD assay, GSK-3β phosphorylation in cell lysates
p70S6K = assay: Luminex multiplex assay, p70S6K phosphorylation in cell lysates; settings: PC3 cell line; read-out: Luminex p70S6K
Phospho-GSK3β(S9) = assay: Luminex multiplex assay, Phospho-GSK3β(S9); settings: PC3 cell line; read-out: Luminex GSK-3β
Outline: (§1)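 Cells (PC3; HCT-116, MDA-MB-231 and HT29 with 500 ng/mL recombinant human IGF-I for the final 10 min) treated with compound or rapamycin over a concentration range for 1 h at 37° C, 5% CO2. Lysates read by bead-based Luminex sandwich immunoassay, 3 h at room temperature, RPE anti-rabbit detection, quantified against phosphoprotein standard curves.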

Phospho-PRAS40(T246) = assay: Luminex multiplex assay, Phospho-PRAS40(T246); settings: PC3 cell line; read-out: Luminex PRAS40
Outline: as §1

[1] = Homo sapiens, HCT-116, HCT116 cell line, IGF, read-out: MSD p70S6K (IGF)
[2] = Homo sapiens, U-87 MG, U87MG cell line, read-out: MSD p70S6K
[3] = Homo sapiens, HCT-116, HCT116 cell line, IGF, read-out: MSD GSK-3β (IGF)
[4] = Homo sapiens, U-87 MG, U87MG cell line, read-out: MSD GSK-3β
[5] = PC3 cell line, read-out: MSD p70S6K
[6] = PC3 cell line, read-out: MSD GSK-3β

Row | SMILES | IC50 (Phospho-p70S6K (T389); [5]) | IC50 (GSK-3β; [6]) | also measured
1 | CO[C@H]1CC[C@H](N2C(=O)CNc3ncc(-c4ccc(-c5nnc[nH]5)nc4C)nc32)CC1 [A-11, 1-((1r,4r)-4-methoxycyclohexyl)-7-(2-methyl-6-(4H-1,2,4-triazol-3-yl)pyridin-3-yl)-3,4-dihydropyrazino[2,3-b]pyrazin-2(1H)-one] | – | – | IC50 (Phospho-p70S6K (T389); HCT116 cell line, IGF, read-out: MSD p70S6K (IGF)): 157 nM; IC50 (Phospho-p70S6K (T389); U87MG cell line, read-out: MSD p70S6K): 93.1 nM; IC50 (GSK-3β; HCT116 cell line, IGF, read-out: MSD GSK-3β (IGF)): 202 nM; IC50 (GSK-3β; U87MG cell line, read-out: MSD GSK-3β): 479 nM
2 | CCN1C(=O)CNc2ncc(-c3ccc(-c4nnc[nH]4)nc3C)nc21 [A-12, 1-ethyl-7-(2-methyl-6-(4H-1,2,4-triazol-3-yl)pyridin-3-yl)-3,4-dihydropyrazino[2,3-b]pyrazin-2(1H)-one] | – | – | IC50 (Phospho-p70S6K (T389); [1]): 846 nM; IC50 (Phospho-p70S6K (T389); [2]): 252 nM; IC50 (GSK-3β; [3]): > 2000 nM; IC50 (GSK-3β; [4]): > 2000 nM
3 | Cc1nc(-c2nnc[nH]2)ccc1-c1cnc2c(n1)N(C(C)C)C(=O)CN2 [A-13, 1-isopropyl-7-(2-methyl-6-(4H-1,2,4-triazol-3-yl)pyridin-3-yl)-3,4-dihydropyrazino[2,3-b]pyrazin-2(1H)-one] | – | – | IC50 (Phospho-p70S6K (T389); [1]): 941 nM; IC50 (Phospho-p70S6K (T389); [2]): 351 nM; IC50 (GSK-3β; [3]): > 2000 nM; IC50 (GSK-3β; [4]): > 2000 nM
4 | COCCN1C(=O)CNc2ncc(-c3cccc4[nH]ncc34)nc21 [C-109] | – | – | IC50 (p70S6K): 367 nM; IC50 (Phospho-GSK3β(S9)): > 1500 nM; IC50 (Phospho-PRAS40(T246)): > 1500 nM
5 | CO[C@H]1CC[C@@H](N2CC(=O)Nc3ncc(-c4ccc(-c5nc[nH]n5)c(F)c4C)nc32)CC1 [C-110] | 22 nM | > 150 nM | –
6 | Cc1c(-c2cnc3c(n2)N(C2CCOCC2)CC(=O)N3)ccc(-c2nc[nH]n2)c1F [C-111] | 58 nM | > 150 nM | –
7 | COCCN1C(=O)CNc2ncc(-c3ccc(-c4cc[nH]n4)cc3)nc21 [C-112] | 36 nM | > 500 nM | –
8 | O=C1CNc2ncc(-c3ccc(O)nc3)nc2N1CCC1CCOCC1 [C-113] | > 500 nM | > 500 nM | –
9 | CNc1ccc(-c2cnc3c(n2)N(CCC2CCOCC2)C(=O)CN3)cn1 [C-114] | 184 nM | 2030 nM | –
10 | Nc1cc(-c2cnc3c(n2)N(CCC2CCOCC2)C(=O)CN3)ccn1 [C-115] | > 500 nM | > 500 nM | –
11 | Nc1ncc(-c2cnc3c(n2)N(CCC2CCOCC2)C(=O)CN3)cn1 [C-116] | 303 nM | 3990 nM | –
12 | O=C1CNc2ncc(-c3cccc4[nH]ncc34)nc2N1CCC1CCOCC1 [C-117] | > 5000 nM | > 5000 nM | –
13 | Cc1cc(C(N)=O)ncc1-c1cnc2c(n1)N(C(C)C)C(=O)CN2 [C-118] | 170 nM | 3930 nM | –
14 | CCN1CC(=O)Nc2ncc(-c3cc(F)c(-c4nc[nH]n4)cc3C)nc21 [C-119] | 10 nM | 323 nM | –
15 | Cc1cc(-c2nc[nH]n2)c(F)cc1-c1cnc2c(n1)N(C(C)C)CC(=O)N2 [C-120] | 12 nM | 99 nM | –
16 | Cc1cc(-c2nc[nH]n2)ncc1-c1cnc2c(n1)N(C(C)C)C(=O)CN2 [C-121] | – | 15 nM | –
17 | Cc1cc(-c2nc[nH]n2)c(F)cc1-c1cnc2c(n1)N(C1CCOCC1)CC(=O)N2 [C-122] | 6 nM | 323 nM | –
18 | Cc1cc(-c2nc[nH]n2)c(F)cc1-c1cnc2c(n1)N(C1CCC(O)CC1)CC(=O)N2 (centres unmarked) [C-123] | 13 nM | > 500 nM | –
19 | CCN1CC(=O)Nc2ncc(-c3ccc(-c4nc[nH]n4)nc3)nc21 [C-124] | 289 nM | > 500 nM | –
20 | O=C1CN(C2CCOCC2)c2nc(-c3ccc(-c4ncn[nH]4)nc3)cnc2N1 [C-125] | 73 nM | > 500 nM | –
21 | O=C1CNc2ncc(-c3ccnc(O)c3)nc2N1CCC1CCOCC1 [C-126] | 480 nM | 1140 nM | –

Row | SMILES | IC50 (Phospho-p70S6K (T389); [5]) | IC50 (GSK-3β; [6]) | also measured
22 | CCN1C(=O)CNc2ncc(-c3cc(F)c(-c4nc[nH]n4)cc3C)nc21 [C-127] | 4 nM | 33 nM | –
23 | Cc1cc(-c2nc[nH]n2)c(F)cc1-c1cnc2c(n1)N(C(C)C)C(=O)CN2 [C-128] | 21 nM | 1 nM | –
24 | COCCN1C(=O)CNc2ncc(-c3cc(F)c(-c4nc[nH]n4)cc3C)nc21 [C-129] | 1 nM | > 500 nM | –
25 | Cc1cc(-c2nc[nH]n2)c(F)cc1-c1cnc2c(n1)N([C@H]1CC[C@H](O)CC1)C(=O)CN2 [C-130] | < 0.835 nM | 12 nM | –
26 | COCCN1CC(=O)Nc2ncc(-c3cc(F)c(-c4nc[nH]n4)cc3C)nc21 [C-131] | 118 nM | > 500 nM | –
27 | COC1CCC(N2CC(=O)Nc3ncc(-c4cc(F)c(-c5ncn[nH]5)cc4C)nc32)CC1 (centres unmarked) [C-132] | 222 nM | > 500 nM | –
28 | Cc1cc(-c2nc[nH]n2)c(F)cc1-c1cnc2c(n1)N(C1CCC(O)CC1)CC(=O)N2 (centres unmarked) [C-133] | 61 nM | > 500 nM | –
29 | CC(C)N1CC(=O)Nc2ncc(-c3ccc(-c4nc[nH]n4)nc3)nc21 [C-134] | 172 nM | > 500 nM | –
30 | COCCN1CC(=O)Nc2ncc(-c3ccc(-c4nc[nH]n4)nc3)nc21 [C-135] | > 1500 nM | > 1500 nM | –
31 | COC1CCC(N2CC(=O)Nc3ncc(-c4ccc(-c5ncn[nH]5)nc4)nc32)CC1 (centres unmarked) [C-136] | 82 nM | > 500 nM | –
32 | COC1CCC(N2C(=O)CNc3ncc(-c4cc(F)c(-c5ncn[nH]5)cc4C)nc32)CC1 (centres unmarked) [C-137] | 52 nM | 394 nM | –
33 | CC(C)N1C(=O)CNc2ncc(-c3ccc(-c4ncn[nH]4)nc3)nc21 [C-138] | 40 nM | 181 nM | –
34 | COC1CCC(N2C(=O)CNc3ncc(-c4ccc(-c5ncn[nH]5)nc4)nc32)CC1 (centres unmarked) [C-139] | 40 nM | > 500 nM | –
35 | O=C1CNc2ncc(-c3ccc(-c4nc[nH]n4)nc3)nc2N1C1CCC(O)CC1 (centres unmarked) [C-140] | 70 nM | > 500 nM | –
36 | O=C1CNc2ncc(-c3ccc(-c4nc[nH]n4)nc3)nc2N1CC1CCC(O)CC1 (centres unmarked) [C-141] | 42 nM | – | –
37 | Cc1cc(-c2nc[nH]n2)c(F)cc1-c1cnc2c(n1)N(CC1CCC(O)CC1)C(=O)CN2 (centres unmarked) [C-142] | 18 nM | > 500 nM | –
38 | COC1CCC(CN2CC(=O)Nc3ncc(-c4ccc(-c5ncn[nH]5)nc4)nc32)CC1 (centres unmarked) [C-156] | 10 nM | – | –
39 | Cc1cc(-c2nc[nH]n2)c(F)cc1-c1cnc2c(n1)N(CC1CCC(O)CC1)CC(=O)N2 (centres unmarked) [C-157] | 37 nM | – | –
40 | COC1CCC(CN2CC(=O)Nc3ncc(-c4ccc(-c5nc[nH]n5)nc4)nc32)CC1 (centres unmarked) [C-158] | 36 nM | – | –
41 | CO[C@H]1CC[C@@H](CN2C(=O)CNc3ncc(-c4ccc(-c5nc[nH]n5)nc4)nc32)CC1 [C-165] | – | 3 nM | –
